Reference: patent publication US20260184663A1, “INDENE COMPOUNDS, PHARMACEUTICAL COMPOSITIONS THEREOF, AND THEIR THERAPEUTIC APPLICATIONS” (NucMito Pharmaceuticals co. Ltd., priority 2022, published 2026)
Like-named read-outs stand apart in the source and are kept apart here.

Assays:
Format in all cases: cell-based
[1] = test system: MDA-MB-231 (breast cancer); test: Antiproliferative activity (CCK-8 cell viability), MDA-MB-231; conditions: Homo sapiens, 72 h; for inhibition at 3.3 µM: Compound concentration: 3.3 μM; for inhibition at 10 µM: Compound concentration: 10 μM; for inhibition at 30 µM: Compound concentration: 30 μM
Method in brief: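 In this CCK-8 viability assay, MDA-MB-231 cells maintained in Dulbecco's modified Eagle's medium containing 10% fetal bovine serum were placed in 96-well plates (2,000-5,000 cells/well) and treated with compound for 72 h at 37° C. A 4 h incubation with 10 μL CCK-8 followed, plates were read at 450 nm, and viability was expressed against DMSO vehicle wells across replicates.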

HepG2 (liver cancer) = test: Antiproliferative activity (CCK-8 cell viability), HepG2; conditions: Homo sapiens, 72 h, read-out: Antiproliferative activity in cancerous cells, HepG2 (inhibition of cell growth); for inhibition at 3.3 µM: Compound concentration: 3.3 μM; for inhibition at 10 µM: Compound concentration: 10 μM
Method in brief: (§1)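 Cells were seeded at 2,000-5,000/well (HeLa in MEM, HepG2 and SW480 in DMEM, A549 in F-12K, all with 10% FBS) and treated with compound at 3.3, 10 or 30 μM for 72 h at 37° C. CCK-8 was added for 4 h, absorbance was read at 450 nm, and viability was expressed relative to DMSO-treated wells.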

SW480 (colon cancer) = test: Antiproliferative activity (CCK-8 cell viability), SW480; conditions: Homo sapiens, 72 h, read-out: Antiproliferative activity in cancerous cells, SW480 (inhibition of cell growth); for inhibition at 3.3 µM: Compound concentration: 3.3 μM; for inhibition at 10 µM: Compound concentration: 10 μM
Method in brief: as §1

[2] = test system: B16F10 (malignant melanoma); test: Antiproliferative activity (CCK-8 cell viability), B16F10; conditions: Mus musculus, 72 h, read-out: Antiproliferative activity in cancerous cells, B16F10 (inhibition of cell growth); for inhibition at 3.3 µM: B16-F10, Compound concentration: 3.3 μM; for inhibition at 10 µM: B16-F10, Compound concentration: 10 μM
Method in brief: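 Attached B16F10 cells in 96-well plates were incubated with compound at 37° C for 72 h, followed by 10 μL CCK-8 reagent per well and a further 4 h incubation. A multi-well plate reader measured absorbance at 450 nm. Percent viability across replicates was calculated against DMSO vehicle-treated cells.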

[3] = test system: A431 (epidermoid carcinoma); test: Antiproliferative activity (CCK-8 cell viability), A431; conditions: Homo sapiens, 72 h, read-out: Antiproliferative activity in cancerous cells, A431 (inhibition of cell growth); for inhibition at 3.3 µM: A-431, Compound concentration: 3.3 μM; for inhibition at 10 µM: A-431, Compound concentration: 10 μM
Method in brief: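 Cell viability of compound-treated A431 cells was measured with a Cell Counting Kit-8. Each well received 10 μL of CCK-8 after 72 h of compound exposure, followed by 4 h incubation at 37° C. and a 450 nm plate-reader measurement. Percent viability was calculated relative to DMSO controls across replicates.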

[4] = test system: A549 (lung adenocarcinoma); test: Antiproliferative activity (CCK-8 cell viability), A549; conditions: Homo sapiens, 72 h; for inhibition at 3.3 µM: Compound concentration: 3.3 μM; for inhibition at 10 µM: Compound concentration: 10 μM; for inhibition at 30 µM: Compound concentration: 30 μM
Method in brief: as §1

HeLa (cervical cancer) = test: Antiproliferative activity (CCK-8 cell viability), HeLa; conditions: Homo sapiens, 72 h, read-out: Antiproliferative activity in cancerous cells, HELA (inhibition of cell growth); for inhibition at 3.3 µM: Compound concentration: 3.3 μM; for inhibition at 10 µM: Compound concentration: 10 μM
Method in brief: as §1

[5] = read-out: Antiproliferative activity in cancerous cells, MDA-MB-231 (inhibition of cell growth)
[6] = read-out: Antiproliferative activity in cancerous cells, MDA-MB-231
[7] = read-out: Antiproliferative activity in cancerous cells, A549 (inhibition of cell growth)

| Compound | inhibition at 3.3 µM [1, 5] | inhibition at 10 µM [1, 5] | inhibition at 30 µM [1, 6] | inhibition at 3.3 µM (HepG2 (liver cancer)) | inhibition at 10 µM (HepG2 (liver cancer)) | inhibition at 3.3 µM (SW480 (colon cancer)) | inhibition at 10 µM (SW480 (colon cancer)) | inhibition at 3.3 µM [2] | inhibition at 10 µM [2] | inhibition at 3.3 µM [3] | inhibition at 10 µM [3] | inhibition at 3.3 µM [4, 7] | inhibition at 10 µM [4, 7] | inhibition at 3.3 µM (HeLa (cervical cancer)) | inhibition at 10 µM (HeLa (cervical cancer)) | other results |
| --- | --- | --- | --- | --- | --- | --- | --- | --- | --- | --- | --- | --- | --- | --- | --- | --- |
| CC1=C(CC(=O)O)c2cc(C)ccc2/C1=C\c1ccc(CCc2ccccc2)cc1 [B147, (Z)-2-(2,5-Dimethyl-1-(4-phenethylbenzylidene)-1H-inden-3-yl)acetic acid] | < 30% | < 30% | 30 to 50% | < 30% | ≥ 50% | < 30% | ≥ 50% | < 30% | ≥ 50% | ≥ 50% | ≥ 50% | < 30% | ≥ 50% | < 30% | ≥ 50% | – |
| CC1=C(CC(=O)O)c2cc(C)ccc2/C1=C\c1ccc(COc2ccc(C(F)(F)F)cc2)cc1 [B59, (Z)-2-(2,5-Dimethyl-1-(4-((4-(trifluoromethyl)phenoxy)methyl)benzylidene)-1H-inden-3-yl)acetic acid] | < 30% | < 30% | < 30% | < 30% | < 30% | < 30% | 30 to 50% | 30 to 50% | ≥ 50% | ≥ 50% | ≥ 50% | < 30% | 30 to 50% | 30 to 50% | 30 to 50% | inhibition at 30 µM ([4]; read-out: Antiproliferative activity in cancerous cells, A549): 30 to 50% |
| CCc1ccc(Oc2ccc(/C=C3\C(C)=C(CC(=O)O)c4cc(Cl)ccc43)cc2)cc1 [E31, (E)-2-(5-Chloro-1-(4-(4-ethylphenoxy)benzylidene)-2-methyl-1H-inden-3-yl)acetic acid] | ≥ 50% | ≥ 50% | – | < 30% | ≥ 50% | 30 to 50% | 30 to 50% | 30 to 50% | ≥ 50% | ≥ 50% | ≥ 50% | ≥ 50% | ≥ 50% | ≥ 50% | ≥ 50% | inhibition at 30 µM [1, 5]: ≥ 50%; inhibition at 30 µM (HepG2 (liver cancer); Compound concentration: 30 μM): ≥ 50%; inhibition at 30 µM (SW480 (colon cancer); Compound concentration: 30 μM): ≥ 50%; inhibition at 30 µM ([2]; B16-F10, Compound concentration: 30 μM): ≥ 50%; inhibition at 30 µM ([3]; A-431, Compound concentration: 30 μM): ≥ 50%; inhibition at 30 µM [4, 7]: ≥ 50%; inhibition at 30 µM (HeLa (cervical cancer); Compound concentration: 30 μM): ≥ 50% |
| CC1=C(CC(=O)O)c2cc(F)ccc2/C1=C\c1ccc(Oc2ccc(Cl)cc2)cc1C [C64, (Z)-2-(1-(4-(4-Chlorophenoxy)-2-methylbenzylidene)-5-fluoro-2-methyl-1H-inden-3-yl)acetic acid] | < 30% | 30 to 50% | – | ≥ 50% | ≥ 50% | < 30% | ≥ 50% | 30 to 50% | ≥ 50% | ≥ 50% | ≥ 50% | 30 to 50% | ≥ 50% | ≥ 50% | ≥ 50% | – |
